Results from patent EP4104902B1, “COMPOUNDS AND M[…] SAME” (priority 2020, dated 2021).

System: recombinant rabies virus 1088 strain expressing Gaussia Luciferase (GLuc) (1088/GLuc)
Format: cell-based
Conditions: read-out: Anti-rabies activity

Compared with `CCCCCCNC(=O)[C@@]12C[C@@H]3CN(Cc4cccc5ccccc45)[C@@H]([C@@H]3CN1)[C@H]2CCCNC(=N)N` (relative stereo) [IF-243], `CCCCCCNC(=O)[C@@]12C[C@@H]3CN(Cc4ccccc4)[C@@H]([C@@H]3CN1)[C@H]2CCCNC(=N)N` (relative stereo) [IF-285] is higher in IC50: less than 5 µM for the first, 10 to 30 µM for the second.

First: CC(C)NC(=O)[C@@]12C[C@@H]3CN(Cc4cccc5ccccc45)[C@@H]([C@@H]3CN1)[C@H]2CCCNC(=N)N (relative stereo) [IF-244]
Second: CC(C)CC[C@@H]1[C@@H]2[C@@H]3CN[C@@]1(C(=O)NCCC(N)=O)C[C@@H]3CN2Cc1cccc2ccccc12 (relative stereo) [IF-384]
The IC50 of the first is lower: less than 5 µM for the first, 10 to 30 µM for the second.

First: N=C(N)NCCC[C@@H]1[C@@H]2[C@@H]3CN[C@@]1(C(=O)NCc1ccc(F)cc1)C[C@@H]3CN2Cc1cccc2ccccc12 (relative stereo) [IF-245]
Second: N=C(N)NCCC[C@@H]1[C@@H]2[C@@H]3CN[C@@]1(C(=O)NCc1cccc4ccccc14)C[C@@H]3CN2Cc1ccc(F)cc1 (relative stereo) [IF-297]
The IC50 of the first is lower: less than 5 µM for the first, 10 to 30 µM for the second.

`NC(=O)C[C@@H]1[C@@H]2[C@@H]3CN[C@@]1(C(=O)NCc1ccccc1)C[C@@H]3CN2CC1CCCCC1` (relative stereo) [IF-246] and `NC(=O)C[C@@H]1[C@@H]2[C@@H]3CN[C@@]1(C(=O)NCCc1ccccc1)C[C@@H]3CN2CC1CCCCC1` (relative stereo) [IF-251] fall in the same range of IC50: 10 to 30 µM for the first, 10 to 30 µM for the second.

Compared with `NC(=O)C[C@@H]1[C@@H]2[C@@H]3CN[C@@]1(C(=O)NCc1ccc(O)cc1)C[C@@H]3CN2CC1CCCCC1` (relative stereo) [IF-247], `CC(C)C[C@@H]1[C@@H]2[C@@H]3CN[C@@]1(C(=O)NCc1ccc(O)cc1)C[C@@H]3CN2CC1CCCCC1` (relative stereo) [IF-478] is lower in IC50: 10 to 30 µM for the first, less than 5 µM for the second. The second is the more potent here.

First: CCCCCCNC(=O)[C@@]12C[C@@H]3CN(CC4CCCCC4)[C@@H]([C@@H]3CN1)[C@H]2CCCNC(=N)N (relative stereo) [IF-260]
Second: CCCCCCNC(=O)[C@@]12C[C@@H]3CN(CC4CCCCC4)[C@@H]([C@@H]3CN1)[C@H]2Cc1ccc(O)cc1 (relative stereo) [IF-514]
The IC50 of the first is higher: 10 to 30 µM for the first, less than 5 µM for the second. The second is the more potent here.

Compared with `CC(C)CNC(=O)[C@@]12C[C@@H]3CN(Cc4ccc(F)cc4)[C@@H]([C@@H]3CN1)[C@H]2CC(N)=O` (relative stereo) [IF-262], `CC(C)CC[C@@H]1[C@@H]2[C@@H]3CN[C@@]1(C(=O)NCCO)C[C@@H]3CN2Cc1ccc(F)cc1` (relative stereo) [IF-490] is higher in IC50: less than 5 µM for the first, 10 to 30 µM for the second. The first is the more potent here.

First: NC(=O)C[C@@H]1[C@@H]2[C@@H]3CN[C@@]1(C(=O)NCCc1ccccc1)C[C@@H]3CN2Cc1ccc(F)cc1 (relative stereo) [IF-269]
Second: O=C(NCc1ccc(F)cc1)[C@@]12C[C@@H]3CN(CCO)[C@@H]([C@@H]3CN1)[C@H]2CCc1ccccc1 (relative stereo) [IF-516]
The IC50 of the first is higher: 10 to 30 µM for the first, less than 5 µM for the second.

`CC(C)NC(=O)[C@@]12C[C@@H]3CN(Cc4ccc(F)cc4)[C@@H]([C@@H]3CN1)[C@H]2CCCNC(=N)N` (relative stereo) [IF-274] and `CCCCCCNC(=O)[C@@]12C[C@@H]3CN(Cc4ccc(F)cc4)[C@@H]([C@@H]3CN1)[C@H]2CCCNC(=N)N` (relative stereo) [IF-298] fall in the same range of IC50: 10 to 30 µM for the first, 10 to 30 µM for the second.

First: N=C(N)NCCC[C@@H]1[C@@H]2[C@@H]3CN[C@@]1(C(=O)NCc1cccc4ccccc14)C[C@@H]3CN2Cc1ccccc1 (relative stereo) [IF-284]
Second: N=C(N)NCCCNC(=O)[C@@]12C[C@@H]3CN(Cc4cccc5ccccc45)[C@@H]([C@@H]3CN1)[C@H]2CCc1ccccc1 (relative stereo) [IF-389]
The IC50 of the first is higher: 10 to 30 µM for the first, less than 5 µM for the second. The second is the more potent here.

Compared with `CC(C)CC[C@@H]1[C@@H]2[C@@H]3CN[C@@]1(C(=O)NCCC(N)=O)C[C@@H]3CN2CC(C)C` (relative stereo) [IF-300], `CC(C)CC[C@@H]1[C@@H]2[C@@H]3CN[C@@]1(C(=O)NCC(C)C)C[C@@H]3CN2CC(C)C` (relative stereo) [IF-412] is lower in IC50: 10 to 30 µM for the first, less than 5 µM for the second.

`N=C(N)NCCCNC(=O)[C@@]12C[C@@H]3CN(Cc4cccc5ccccc45)[C@@H]([C@@H]3CN1)[C@H]2Cc1ccccc1` (relative stereo) [IF-386] and `N=C(N)NCCCNC(=O)[C@@]12C[C@@H]3CN(Cc4cccc5ccccc45)[C@@H]([C@@H]3CN1)[C@H]2Cc1cccc2ccccc12` (relative stereo) [IF-390] fall in the same range of IC50: 10 to 30 µM for the first, 10 to 30 µM for the second.

`CC(C)CC[C@@H]1[C@@H]2[C@@H]3CN[C@@]1(C(=O)NCC(C)C)C[C@@H]3CN2Cc1ccccc1` (relative stereo) [IF-411] and `CC(C)CC[C@@H]1[C@@H]2[C@@H]3CN[C@@]1(C(=O)NCc1ccc(O)cc1)C[C@@H]3CN2Cc1ccccc1` (relative stereo) [IF-493] cannot be ordered by IC50: less than 5 µM for the first, less than 5 µM for the second.

`CC(C)CCN1C[C@H]2C[C@]3(C(=O)NCCC(=O)O)NC[C@H]2[C@H]1[C@H]3Cc1cccc2ccccc12` (relative stereo) [IF-413] and `CC(C)CCN1C[C@H]2C[C@]3(C(=O)NCc4ccc(O)cc4)NC[C@H]2[C@H]1[C@H]3Cc1cccc2ccccc12` (relative stereo) [IF-465] fall in the same range of IC50: 10 to 30 µM for the first, 10 to 30 µM for the second.

`CC(C)CCN1C[C@H]2C[C@]3(C(=O)NCc4ccc(O)cc4)NC[C@H]2[C@H]1[C@H]3CCc1ccccc1` (relative stereo) [IF-464] and `CC(C)CC[C@@H]1[C@@H]2[C@@H]3CN[C@@]1(C(=O)NCc1ccc(O)cc1)C[C@@H]3CN2CCc1ccccc1` (relative stereo) [IF-468] fall in the same range of IC50: 10 to 30 µM for the first, 10 to 30 µM for the second.

`CC(C)CCN1C[C@H]2C[C@]3(C(=O)NCc4ccc(O)cc4)NC[C@H]2[C@H]1[C@H]3Cc1ccccc1` (relative stereo) [IF-466] and `CC(C)CCN1C[C@H]2C[C@]3(C(=O)NCCc4ccccc4)NC[C@H]2[C@H]1[C@H]3Cc1ccc(O)cc1` (relative stereo) [IF-545] fall in the same range of IC50: 10 to 30 µM for the first, 10 to 30 µM for the second.

`O=C(NCc1ccc(O)cc1)[C@@]12C[C@@H]3CN(CCc4ccccc4)[C@@H]([C@@H]3CN1)[C@H]2Cc1ccccc1` (relative stereo) [IF-469] and `O=C(NCc1ccc(O)cc1)[C@@]12C[C@@H]3CN(Cc4ccccc4)[C@@H]([C@@H]3CN1)[C@H]2Cc1ccccc1` (relative stereo) [IF-494] fall in the same range of IC50: 10 to 30 µM for the first, 10 to 30 µM for the second.

Compared with `CC(C)C[C@@H]1[C@@H]2[C@@H]3CN[C@@]1(C(=O)NCc1ccc(O)cc1)C[C@@H]3CN2CCc1ccccc1` (relative stereo) [IF-470], `CC(C)C[C@@H]1[C@@H]2[C@@H]3CN[C@@]1(C(=O)NCc1ccc(O)cc1)C[C@@H]3CN2Cc1cccc2ccccc12` (relative stereo) [IF-473] is lower in IC50: 10 to 30 µM for the first, less than 5 µM for the second. The second is the more potent here.

`O=C(NCc1ccc(O)cc1)[C@@]12C[C@@H]3CN(Cc4cccc5ccccc45)[C@@H]([C@@H]3CN1)[C@H]2Cc1ccccc1` (relative stereo) [IF-472] and `O=C(NCc1ccccc1)[C@@]12C[C@@H]3CN(Cc4cccc5ccccc45)[C@@H]([C@@H]3CN1)[C@H]2Cc1ccc(O)cc1` (relative stereo) [IF-505] cannot be ordered by IC50: less than 5 µM for the first, less than 5 µM for the second.

First: CC(C)CC[C@@H]1[C@@H]2[C@@H]3CN[C@@]1(C(=O)NCc1ccc(O)cc1)C[C@@H]3CN2CC1CCCCC1 (relative stereo) [IF-474]
Second: O=C(NCc1ccc(O)cc1)[C@@]12C[C@@H]3CN(CC4CCCCC4)[C@@H]([C@@H]3CN1)[C@H]2CCc1ccccc1 (relative stereo) [IF-475]
The IC50 of the first is lower: less than 5 µM for the first, 10 to 30 µM for the second. The first is the more potent here.

Compared with `O=C(NCc1ccc(O)cc1)[C@@]12C[C@@H]3CN(CC4CCCCC4)[C@@H]([C@@H]3CN1)[C@H]2Cc1ccccc1` (relative stereo) [IF-477], `O=C(NCCO)[C@@]12C[C@@H]3CN(CC4CCCCC4)[C@@H]([C@@H]3CN1)[C@H]2Cc1ccccc1` (relative stereo) [IF-486] is higher in IC50: less than 5 µM for the first, 10 to 30 µM for the second. The first is the more potent here.

Compared with `CC(C)CC[C@@H]1[C@@H]2[C@@H]3CN[C@@]1(C(=O)NCc1ccc(O)cc1)C[C@@H]3CN2Cc1ccc(F)cc1` (relative stereo) [IF-479], `CC(C)C[C@@H]1[C@@H]2[C@@H]3CN[C@@]1(C(=O)NCc1ccc(O)cc1)C[C@@H]3CN2Cc1ccc(F)cc1` (relative stereo) [IF-482] is higher in IC50: less than 5 µM for the first, 10 to 30 µM for the second. The first is the more potent here.

`O=C(NCc1ccc(O)cc1)[C@@]12C[C@@H]3CN(Cc4ccc(F)cc4)[C@@H]([C@@H]3CN1)[C@H]2Cc1ccccc1` (relative stereo) [IF-481] and `O=C(NCc1ccc(F)cc1)[C@@]12C[C@@H]3CN(CCO)[C@@H]([C@@H]3CN1)[C@H]2Cc1ccccc1` (relative stereo) [IF-508] fall in the same range of IC50: 10 to 30 µM for the first, 10 to 30 µM for the second.

`CC(C)CN1C[C@H]2C[C@]3(C(=O)NCc4ccc(O)cc4)NC[C@H]2[C@H]1[C@H]3Cc1cccc2ccccc12` (relative stereo) [IF-500] and `CC(C)NC(=O)[C@@]12C[C@@H]3CN(Cc4ccc(O)cc4)[C@@H]([C@@H]3CN1)[C@H]2Cc1cccc2ccccc12` (relative stereo) [IF-504] fall in the same range of IC50: 10 to 30 µM for the first, 10 to 30 µM for the second.

First: CC(C)CC[C@@H]1[C@@H]2[C@@H]3CN[C@@]1(C(=O)NC(C)C)C[C@@H]3CN2Cc1ccc(O)cc1 (relative stereo) [IF-503]
Second: CC(C)CCN1C[C@H]2C[C@]3(C(=O)NCc4ccc(F)cc4)NC[C@H]2[C@H]1[C@H]3CC(C)C (relative stereo) [IF-548]
The IC50 of the first is lower: less than 5 µM for the first, 10 to 30 µM for the second.

Compared with `CC(C)CN1C[C@H]2C[C@]3(C(=O)NCc4ccc(F)cc4)NC[C@H]2[C@H]1[C@H]3CCc1ccccc1` (relative stereo) [IF-525], `CC(C)CCN1C[C@H]2C[C@]3(C(=O)NCc4ccc(F)cc4)NC[C@H]2[C@H]1[C@H]3Cc1ccccc1` (relative stereo) [IF-547] is lower in IC50: 10 to 30 µM for the first, less than 5 µM for the second. The second is the more potent here.

`NC(=O)CCNC(=O)[C@@]12C[C@@H]3CN(CC4CCCCC4)[C@@H]([C@@H]3CN1)[C@H]2Cc1cccc2ccccc12` (relative stereo) [IF-536] and `NC(=O)CCNC(=O)[C@@]12C[C@@H]3CN(Cc4ccc(F)cc4)[C@@H]([C@@H]3CN1)[C@H]2Cc1cccc2ccccc12` (relative stereo) [IF-539] cannot be ordered by IC50: less than 5 µM for the first, less than 5 µM for the second.

First: CC(C)C[C@@H]1[C@@H]2[C@@H]3CN[C@@]1(C(=O)NCc1cccc4ccccc14)C[C@@H]3CN2CCO (relative stereo) [IF-542]
Second: O=C(NCc1cccc2ccccc12)[C@@]12C[C@@H]3CN(CCO)[C@@H]([C@@H]3CN1)[C@H]2Cc1ccc(O)cc1 (relative stereo) [IF-543]
The IC50 of the first is lower: less than 5 µM for the first, 10 to 30 µM for the second.

`CCCCCCNC(=O)[C@@]12C[C@@H]3CN(CCC(C)C)[C@@H]([C@@H]3CN1)[C@H]2CC(C)C` (relative stereo) [IF-546] gave an IC50 of 10 to 30 µM.
